Data: patent US20250108038A1 (priority 2023, published 2025)
“Also recorded” adds a separate entry of the source.

Assays:
OAT3 = molecular target: T1, OAT3 (Homo sapiens, UniProt Q8TCC7); experiment: Uptake transporter inhibition assay, OAT3 (estrone-3-sulfate); settings: for Maximum % inhibition: OAT3, HEK293 cells, E3S (1 μM), NIO: no inhibition observed
T1 sequence (Q8TCC7 1-542): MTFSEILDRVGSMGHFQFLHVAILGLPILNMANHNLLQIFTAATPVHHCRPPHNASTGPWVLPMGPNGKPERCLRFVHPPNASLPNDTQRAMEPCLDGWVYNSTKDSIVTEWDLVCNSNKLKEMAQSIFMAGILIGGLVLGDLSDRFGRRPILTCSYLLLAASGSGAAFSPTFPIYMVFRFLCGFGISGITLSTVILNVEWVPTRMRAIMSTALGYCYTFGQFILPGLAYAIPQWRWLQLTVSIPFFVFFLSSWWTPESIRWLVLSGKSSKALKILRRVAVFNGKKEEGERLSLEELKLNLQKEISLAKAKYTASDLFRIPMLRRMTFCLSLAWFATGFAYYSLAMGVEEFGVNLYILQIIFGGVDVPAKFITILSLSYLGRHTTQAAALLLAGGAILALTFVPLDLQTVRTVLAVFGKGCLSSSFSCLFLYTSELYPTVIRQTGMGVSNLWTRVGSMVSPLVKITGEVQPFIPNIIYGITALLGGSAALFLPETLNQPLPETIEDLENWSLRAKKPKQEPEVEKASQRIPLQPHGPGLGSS
Experimental: (§1) Uptake experiments were performed using HEK293 cells stably expressing the respective uptake transporters. The assays were conducted according to the actual SOLVO uptake transporter assay protocols (PR-ASY-UPT-General Protocol for Uptake Transporter Inhibition Assays).
(§2) Cells were cultured at 37° C. in a humidified atmosphere containing 5% CO2 and were plated onto standard 96-well tissue culture plates.
(§3) Before the experiment, the medium was removed, and the cells were washed twice with 100 μL of pre-warmed (37° C.) assay buffer listed in Table 15. The cells were pre-incubated at 37° C. for 30 minutes in assay buffer containing the test article at appropriate concentrations (Table 16), appropriate solvents for solvent controls and the reference inhibitor for reference inhibitor wells. After the pre-incubation step solutions were removed. Uptake experiments were performed at 37° C. in 50 μL of assay buffer containing the probe substrate and the test article or solvent and controls.
(§4) After the experiment, cells were washed twice with 100 μL of appropriate cold buffer and lysed with 150 μL scintillation cocktail. Radiolabeled probe substrate transport was determined by liquid scintillation counting.
(§5) Uptake of the probe substrate in control cells provided background activity values for all data points.

OAT1 = molecular target: T2, OAT1 (Homo sapiens, UniProt Q4U2R8); experiment: Uptake transporter inhibition assay, OAT1 (tenofovir); settings: for Maximum % inhibition: OAT1, HEK293 cells, tenofovir (5 μM), NIO: no inhibition observed
T2 sequence (Q4U2R8 1-563): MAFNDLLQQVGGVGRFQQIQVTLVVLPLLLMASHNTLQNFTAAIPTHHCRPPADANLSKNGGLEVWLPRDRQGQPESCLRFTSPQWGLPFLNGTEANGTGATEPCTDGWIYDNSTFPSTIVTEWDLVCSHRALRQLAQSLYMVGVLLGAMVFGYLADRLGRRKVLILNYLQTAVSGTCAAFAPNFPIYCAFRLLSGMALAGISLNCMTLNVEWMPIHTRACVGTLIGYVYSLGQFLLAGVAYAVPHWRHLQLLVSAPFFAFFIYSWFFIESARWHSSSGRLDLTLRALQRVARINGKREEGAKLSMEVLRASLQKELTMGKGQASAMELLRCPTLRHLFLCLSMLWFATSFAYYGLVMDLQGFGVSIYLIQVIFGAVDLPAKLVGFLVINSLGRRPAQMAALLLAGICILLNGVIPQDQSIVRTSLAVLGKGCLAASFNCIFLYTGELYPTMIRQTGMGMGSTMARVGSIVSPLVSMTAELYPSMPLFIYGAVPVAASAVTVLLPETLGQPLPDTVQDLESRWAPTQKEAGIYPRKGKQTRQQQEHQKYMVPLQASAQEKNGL
Experimental: as §1, §2, §3, §4, §5

human gut microbiota = experiment: Stability in human gut microbiota; settings: human fecal matter, 37° C., 0-120 min
Experimental: FIG. 7A. […] Gut microbiota from rat and human sources were extracted and purified in PBS at pH 6.0 or 7.4. A stock solution of 10 mM was prepared and a 10 μL aliquot was added to extracted microorganisms at 0 min. […] Values represent mean+SEM of n=3 separate experiments.
FIG. 7B. […] Gut microbiota from rat and human sources were extracted and purified in PBS at pH 6.0 or 7.4. A stock solution of 10 mM was prepared and a 10 μL aliquot was added to extracted microorganisms at 0 min. […] Values represent mean+SEM of n=3 separate experiments.
Rat fecal material was obtained and weighed. One capsule of the raw probiotics was crushed and weighed prior to use. The weighed samples were then solubilized in PBS at pH 6.0 and 7.4 to extract microorganisms. The samples were centrifuged at 18,000×g for 10 min. to remove particulates and the supernatant was used to evaluate test article stability. An aliquot (50 μL) of the test article stock solutions were added to the fecal extract (final concentration 0.5 mM) and allowed to incubate at 37° C. […] The collected sample was quenched in acetonitrile/0.1% formic acid mixture.

[1] = 10.00 μM nominal, 6.60 μM NSB corrected
[2] = 100.00 μM nominal, 77.00 μM NSB corrected
[3] = up to 100 μM (Compound A up to 30 μM)

SMILES: Clc1ccc(C2(OCC3OCCO3)c3ccccc3C3=NCCN32)cc1 (stereo not shown) [Compound I-19]
- Relative inhibition (OAT3; [1]): 5%
- Relative transporter specific accumulation (OAT3; [1]): 95.18 ± 1.71 % of control
- Transporter specific accumulation (OAT3; [1]): 10,323.00 ± 126.84 cpm
- Relative inhibition (OAT3; [2]): 42%
- Relative transporter specific accumulation (OAT3; [2]): 57.83 ± 0.99 % of control
- Transporter specific accumulation (OAT3; [2]): 6,272.33 ± 68.97 cpm
- Maximum % inhibition (OAT3): 42%
- Relative inhibition (OAT1; [1]): 11%
- Relative transporter specific accumulation (OAT1; [1]): 89.39 ± 1.16 % of control
- Transporter specific accumulation (OAT1; [1]): 5,462.33 ± 30.98 cpm
- Relative inhibition (OAT1; [2]): 33%
- Relative transporter specific accumulation (OAT1; [2]): 66.61 ± 1.15 % of control
- Transporter specific accumulation (OAT1; [2]): 4,070.33 ± 51.74 cpm
- Maximum % inhibition (OAT1): 33%
- % parent compound remaining (human gut microbiota; pH 6, 0.5 mM): no significant change in the amount of parent compound
- % parent compound remaining (human gut microbiota; pH 7.4, 0.5 mM): at or above 100% for all time points except 120 min

SMILES: OC1(c2ccc(Cl)cc2)c2ccccc2C2=NCCN21 (stereo not shown) [Compound A, 5-(4-chlorophenyl)-2,3-dihydroimidazo[1,2-b]isoindol-5-ol, reference compound]
- Relative transporter specific accumulation (OAT3; 3.00 μM nominal): 97.60 ± 4.33 % of control
- Transporter specific accumulation (OAT3; 3.00 μM nominal): 3,883.00 ± 158.50 cpm
- Relative transporter specific accumulation (OAT3; 30.00 μM nominal): 89.65 ± 3.21 % of control
- Transporter specific accumulation (OAT3; 30.00 μM nominal): 3,566.67 ± 111.53 cpm
- Maximum % inhibition (OAT3): NIO
- inhibition at 3 μM (OAT3; human, Relative inhibition, 3.00 μM nominal): 2%
- inhibition at 30 μM (OAT3; human, Relative inhibition, 30.00 μM nominal): 10%
- maximum inhibition of OAT3-mediated E3S accumulation (OAT3; [3]): did not inhibit; also recorded: not an in vitro inhibitor
- Relative transporter specific accumulation (OAT1; 3.00 μM nominal): 99.68 ± 2.39 % of control
- Transporter specific accumulation (OAT1; 3.00 μM nominal): 2,392.67 ± 13.09 cpm
- Relative transporter specific accumulation (OAT1; 30.00 μM nominal): 88.39 ± 4.23 % of control
- Transporter specific accumulation (OAT1; 30.00 μM nominal): 2,121.67 ± 88.79 cpm
- Maximum % inhibition (OAT1): NIO
- inhibition at 3 μM (OAT1; human): 0%
- inhibition at 30 μM (OAT1; human): 12%
- maximum inhibition of OAT1-mediated tenofovir accumulation (OAT1; [3]): did not inhibit; also recorded: not an in vitro inhibitor

SMILES: COCCOC1(c2ccc(Cl)cc2)c2ccccc2C2=NCCN21 (stereo not shown) [Compound I-4]
- % parent compound remaining (human gut microbiota; pH 6, 0.5 mM): ≥ 100%
- % parent compound remaining (human gut microbiota; pH 7.4, 0.5 mM): decreases after 10 min. and reached a steady-state until 120 min; also recorded: slightly unstable
